US20250154112A1, “A PREPARATION OF QUINAZOLINEDIONES AND USE THEREOF” (COUNCIL OF SCIENTIFIC AND INDUSTRIAL RESEARCH AN INDIAN …, priority 2021, published 2025)
≈ marks a conversion by molar mass, not a printed value.

Assays:
ATGL [1] = assay: Western blot of ATGL level in HepG2 cells after compound treatment; type: cell-based; details: 24 hours; for induction of ATGL (Western Blot): 5 μM; for ATGL level (Western Blot): 50 nM to 5 μM dose dependent, with respect to control
Protocol: (§1) HepG2 cells were treated with the compounds 5, 8, 11, 59, 62, 91, 94 (50 nM, 100 nM, 200 nM, 500 nM, 1 μM and 5 μM for dose dependent assays) for 24 hours. After removing media from the cells, the wells were washed with 1×PBS twice to remove any remnant media. Cells were then lysed in lysis buffer containing 50 mM Tris-HCl (pH 7.4), 100 mM NaCl, 1 mM EDTA, 1 mM EGTA, 1% Triton X-100 and protease inhibitor cocktail (Millipore, Billierica, MA, USA). Following centrifugation at 20,000 g for 20 minutes, the protein solution was extracted from the cells. Protein was estimated using Bradford assay. Bradford's reagent (BioRad) was diluted in 1:4 ratio in double distilled water. 2 μl of protein sample was added to 100 μl of the reagent and absorbance was measured at 595 nm. 30 μg of protein was diluted in lysis buffer. 1X loading buffer diluted from 5X stock containing 250 mM Tris-HCl (pH 6.8), 10% SDS, 50% glycerol, 0.1% bromophenol Blue and 10% β-mercaptoethanol was added. The protein samples were then heated at 95° C. for 10 minutes, cooled and centrifuged at 12,000 g for 2 minutes prior to loading.
(§2) For western blotting, the proteins were resolved in 10% SDS PAGE (discontinuous buffer system). 1X running buffer containing SDS, Tris Base and Glycine was used to run the gel at 80V for approximately 2 hours. Transfer was done using PVDF membrane (Millipore) having pore size of 0.45 μm. 1X transfer buffer containing Tris-Base, Glycine and 20% methanol was used for wet transfer. Transfer was done at 90V for 3 hours. Following transfer, the PVDF membrane containing the proteins were washed in 1×PBST comprising of 1×PBS and 1% Tween 20 (Sigma Aldrich). The membrane was then incubated for 1 hour at room temperature in 5% skim milk powder to block the non-specific sites. Following multiple washes with 1×PBST to wash away any remaining blocking buffer, the required primary antibody (COP1 [BethylLaboraties], ATGL [Cell Signalling Technology] or Actin[Cell Signalling Technology]) prepared with 1×PBST, 1% Bovine Serum Albumin and 0.04% Sodium Azide was added to the membrane and incubated overnight at 4° C. The next day, the membrane was again washed multiple times with 1×PBST to remove any unbound primary antibody. The membrane was then incubated with goat anti-rabbit secondary antibody (Genei) for 1 hour at room temperature and washed again for multiple times with 1×PBST. The membrane was then developed using Clarity™ ECL Western Blotting Substrate (BioRad) and viewed in ChemiDoc (BioRad).
as §1, with “62, 65,” for “62,”, “at” for “(50 nM, 100 nM, 200 nM, 500 nM, 1 μM and”, “μM” for “μM for dose dependent assays)”, “cocktail 1” for “cocktail”

COP1 = biological target: T1, COP1 (Homo sapiens, UniProt Q8NHY2); assay: Western blot of COP1 level in HepG2 cells after compound treatment; type: cell-based; details: 5 μM, 24 hours
T1 construct: endogenous in cells; host or cells: HepG2
Protocol: as §1, with “62, 65,” for “62,”, “at” for “(50 nM, 100 nM, 200 nM, 500 nM, 1 μM and”, “μM” for “μM for dose dependent assays)”, “cocktail 1” for “cocktail”
as §2

[2] = Determination of EC50 (in-vitro)
ATGL [3] = assay: Fold change in ATGL by densitometric analysis; type: cell-based; details: fold change of ATGL with respect to control, normalized with actin
Protocol: Densitimetric analysis was performed by image J to calculate the fold change of ATGL with respect to control. The values were normalized with actin.

[4] = Lipophilicity assay (octanol/buffer Log D); type: physicochemical; details: pH 7.4, n-octanol/sodium phosphate buffer
Protocol: 1.56 g NaH2PO4·2H2O was dissolved in 0.5 L water in a 1 L beaker. After adjusting pH to 7.4 using NaOH solution, the volume was made up to 1 L. Equal volumes of sodium phosphate buffer (10 mM, pH 7.4) and n-octanol were added to a separation funnel and mixed thoroughly by shaking and inverting the funnel several times. The two layers were allowed to separate for overnight and then dispensed in two separate glass bottles. 10 mM stock solution was prepared in 100% DMSO and stored at 4° C. 495 μL of organic phase (1-octanol) was added to each well of a 2 mL deep well plate, followed by 495 μL of buffer and 10 μL of test substance was added. The plate was incubated for 3 hrs at room temperature on a plate shaker at 500 rpm. After incubation, the samples were allowed to equilibrate for 20 min and then centrifuged at 4000 rpm for 30 min for complete phase separation and analysed by LC-UV. Log D=Log (area of octanol/area of buffer)

Plasma stability assay = type: in vitro ADME; details: 1 μM, 37° C.
Protocol: 1 mM Stock of test compound was prepared from 10 mM initial stock solution of compounds by diluting 10 μL of 10 mM stock with 90 μL of DMSO. Then 10 μL of 1 mM stock was diluted with 90 μL of DMSO to give 100 μM concentration. The frozen plasma was thawed at room temperature and centrifuged at 1400 rpm at 4° C., for 15 minutes. Approximately 90% of the clear supernatant fraction was transferred to a separate tube and was used for the assay. Final working stock of 1 μM was prepared by diluting 3 μL of 100 μM with 297 μL of plasma. Plasma containing the test compound was incubated for 120 min at 37° C. in shaker with 500 rpm. 50 μL of aliquot of sample at 0, 15, 30, 60 and 120 minutes were precipitated with 150 μL of acetonitrile containing internal standard and centrifuged at 4000 rpm at 4° C. for 20 minutes. 120 μL of supernatant was diluted with 120 μL of water and analysed by LC-MS/MS.

[5] = Metabolic stability using human liver microsomes (HLM); type: in vitro ADME
Protocol: 1 mM stock solution of test compound was prepared in DMSO and diluted with Acetonitrile:Water (1:1) to get a 100 μM working concentration. 100 mL of Milli Q water was added to K2HPO4 (1.398 g) and KH2PO4 (0.27 g) to get final pH 7.4 solution of potassium phosphate buffer. […] The above mixture was pre incubated for 15 minutes at 37° C. After pre incubation, 32.5 μL of the mixture was added to 17.5 μL of buffer, this was incubated for 60 minutes at 37° C. [60 min Without Cofactor (NADPH)]. 16.25 μL of the pre incubated mixture and 8.75 μL of cofactor was added to 150 μL of acetonitrile containing internal standard [0 min Sample]. 62 μL of cofactor was added to remaining pre incubation mixture [Incubation mixture]. 25 μL of incubation mixture at 0, 5, 15, 30, 60 min and 60 min without cofactor were precipitated with 150 μL of acetonitrile containing internal standard, vortexed and centrifuged at 4000 rpm at 4° C. for 20 minutes. 120 μL of supernatant was diluted with 120 μL of water and analyzed by LC-MS/MS [sample preparation].

Kinetic solubility = type: physicochemical; details: pH 7.4 phosphate buffer (PBS), aqueous buffer, kinetic from dmso stock, room temperature, 1.0% DMSO
Protocol: PBS sachet was dissolved in 0.9 L of Milli Q water and pH was adjusted to 7.4. Final volume was made up to 1 L with the water and stored at ambient temperature 21-25° C. […] 4 μL from the 50 mM stock solution were added to deep well plate containing 396 μL of pH 7.4 phosphate buffer, mixed and incubated for 24 hours at room temperature with constant mixing at 300 rpm. The plate was sealed well during the incubation process. After incubation, the samples were centrifuged for 20 min at 4000 rpm. The supernatant was analysed by HPLC-UV. The DMSO content in the sample was 1.0%. The final concentration of the compound in deep well plate was 500 μM.

T1 sequence (Q8NHY2 whole entry): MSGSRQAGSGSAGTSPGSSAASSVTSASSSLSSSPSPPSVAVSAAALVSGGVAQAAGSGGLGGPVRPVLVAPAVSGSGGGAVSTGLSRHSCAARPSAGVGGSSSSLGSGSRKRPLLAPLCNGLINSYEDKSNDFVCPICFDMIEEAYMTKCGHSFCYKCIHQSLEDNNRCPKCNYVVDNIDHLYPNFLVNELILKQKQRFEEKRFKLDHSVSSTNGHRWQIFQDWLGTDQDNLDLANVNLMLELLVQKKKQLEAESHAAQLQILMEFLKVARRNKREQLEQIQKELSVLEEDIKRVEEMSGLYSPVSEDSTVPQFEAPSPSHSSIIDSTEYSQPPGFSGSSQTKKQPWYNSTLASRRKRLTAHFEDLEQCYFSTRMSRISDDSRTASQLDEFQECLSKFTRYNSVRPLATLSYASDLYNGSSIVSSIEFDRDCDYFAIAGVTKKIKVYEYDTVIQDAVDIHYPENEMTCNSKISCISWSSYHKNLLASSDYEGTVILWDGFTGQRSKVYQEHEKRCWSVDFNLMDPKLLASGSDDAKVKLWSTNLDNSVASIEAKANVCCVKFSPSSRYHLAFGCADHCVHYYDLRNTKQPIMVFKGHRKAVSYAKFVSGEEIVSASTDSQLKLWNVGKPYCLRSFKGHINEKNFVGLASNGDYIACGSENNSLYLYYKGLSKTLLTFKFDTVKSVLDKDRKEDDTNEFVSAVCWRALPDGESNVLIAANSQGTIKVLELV

stabilization of COP1 (Western Blot) (COP1) | EC50 [2] [nM] | logD [4] | Mean % remaining at 2 hrs in human Plasma (Plasma stability assay) [%] | % QH (Well stirred model) [5] [%] | solubility kinetic at 24 hours (Kinetic solubility) [µg/mL] | LogD @ pH 7.4 [4] | Compound | induction of ATGL (Western Blot) (ATGL [1]) | Fold change (ATGL [3]) | ATGL level (Western Blot) (ATGL [1])
stabilize the COP1 | 50 | 2.08 | 48.20 | 62.0 | 20.8 (≈ 40.8 µM) | – | COCCn1c(=O)c2cc(NC(=O)Nc3cccc(C(C)=O)c3)ccc2n(CCN2CCOCC2)c1=O [Compound 65, 1-(3-acetylphenyl)-3-(3-(2-methoxyethyl)-1-(2-morpholinoethyl)-2,4-dioxo-1,2,3,4-tetrahydroquinazolin-6-yl)urea] | ability to induce ATGL | 1.44 | –
stabilize the COP1 | 100 | – | 80.80 | 40.30 | 2.8 (≈ 6.39 µM) | 2.67 | COCCn1c(=O)c2cc(NC(=O)Nc3cccc(C(C)=O)c3)ccc2n(C(C)C)c1=O [Compound 11, 1-(3-acetylphenyl)-3-(1-isopropyl-3-(2-methoxyethyl)-2,4-dioxo-1,2,3,4-tetrahydroquinazolin-6-yl)urea] | ability to induce ATGL | 1.25 | increased ATGL level
stabilize the COP1 | 17.8 | – | – | – | – | – | COCCn1c(=O)c2cc(NC(=O)Nc3cccc(C(C)=O)c3)ccc2n(C)c1=O [Compound 8, 1-(3-acetylphenyl)-3-(3-(2-methoxyethyl)-1-methyl-2,4-dioxo-1,2,3,4-tetrahydroquinazolin-6-yl)urea] | ability to induce ATGL | 1.34 | increased ATGL level
stabilize the COP1 | 209 | – | 32.80 | 17.46 | 124 (≈ 252 µM) | 2.58 | COCCn1c(=O)c2cc(NC(=O)Nc3cccc(C(C)=O)c3)ccc2n(CCN2CCCC2)c1=O [Compound 59, 1-(3-acetylphenyl)-3-(3-(2-methoxyethyl)-2,4-dioxo-1-(2-(pyrrolidin-1-yl)ethyl)-1,2,3,4-tetrahydroquinazolin-6-yl)urea] | ability to induce ATGL | 1.18 | increased ATGL level

Further lines, the molecule ahead of its results:

Compound | stabilization of COP1 (Western Blot) (COP1) | EC50 [2] [nM] | logD [4] | Mean % remaining at 2 hrs in human Plasma (Plasma stability assay) [%] | % QH (Well stirred model) [5] [%] | solubility kinetic at 24 hours (Kinetic solubility) [µg/mL] | LogD @ pH 7.4 [4] | induction of ATGL (Western Blot) (ATGL [1]) | Fold change (ATGL [3]) | ATGL level (Western Blot) (ATGL [1])
CC(C)[N+](C)(CCOC(=O)C1c2ccccc2Oc2ccccc21)C(C)C [Propantheline, reference compound] | – | – | – | 1.70 | – | – | – | – | – | –
COCCn1c(=O)c2cc(NC(=O)Nc3cccc(C(C)=O)c3)ccc2n(CCCN2CCCCC2)c1=O [Compound 91, 1-(3-acetylphenyl)-3-(3-(2-methoxyethyl)-2,4-dioxo-1-(3-(piperidin-1-yl)propyl)-1,2,3,4-tetrahydroquinazolin-6-yl)urea] | stabilize the COP1 | – | – | – | – | – | – | ability to induce ATGL | 1.17 | increased ATGL level
COCCc1ccc(OCC(O)CNC(C)C)cc1 (stereo not shown) [Metroprolol, reference compound] | – | – | – | – | – | – | −0.04 | – | – | –
